Measured values from article PMC12736194, “1-Azinyl-1′-Alkenylferrocenes with Anticholinesterase, Antioxidant, and Antiaggregating Activities as Multifunctional Agents for Potential Treatment of Alzheimer’s Disease” (Pharmaceuticals, 2025).

Key:
[1] = tested on: reprogrammed human neuronal cell cultures (MSC-Neu); experiment: Cytotoxicity, MTT test, MSC-Neu; conditions: read-out: Cytotoxic activity, LC50, MSC-Neu, 24 h, 1 to 1024 μM, mean ± SE, n = 3
Method: (§1) Cytotoxic activity was assessed using the MTT test. […] For each compound, the half-lethal concentration parameter LC50 (μM) was calculated.
(§2) This study employed SH-SY5Y neuroblastoma cells and dental pulp-derived mesenchymal stem cells (MSC-DP). Cells were cultured in DMEM/F12 with 10% (v/v) FBS under standard conditions. MSC-DP were reprogrammed into neuronal-like cells (MSC-Neu) using Neurobasal medium with addition of Neuromax and 3% (v/v) FBS for 5 days.
(§3) The cytotoxic effect of Fcs was assessed using the Mossman test for cellular dehydrogenase activity (MTT test). […] For each compound, the half-lethal concentration parameter (LC50) in μM was calculated as described previously.

[2] = tested on: human neuroblastoma cell cultures (SH-SY5Y); experiment: Cytotoxicity, MTT test, SH-SY5Y; conditions: read-out: Cytotoxic activity, LC50, SH-SY5Y, 24 h, 1 to 1024 μM, mean ± SE, n = 3
Method: as §1, §2, §3

MCF7 cell line = conditions: Figure 12; read-out: LC50, MCF7 cell line; cited from earlier work
[3] = molecular target: T1, human (Homo sapiens) erythrocyte AChE (HsAChE) (Homo sapiens, UniProt P22303); experiment: Inhibition of HsAChE (spectrophotometric, ATCh iodide substrate); format: biochemical; conditions: mean ± SEM, n = 3; for IC50: K/Na-phosphate buffer pH 7.5, 25 °C; for Inhibition of HsAChE, % inhibition at 20 μM: compound 20 μM, n.a. = not active
T1 construct: human (Homo sapiens) erythrocyte AChE (HsAChE); purchased Sigma-Aldrich; host or cells: human erythrocytes
Method: (§4) In these experiments, human (Homo sapiens) erythrocyte AChE (HsAChE), equine (Equus caballus) serum BChE (EcBChE), and porcine (Sus scrofa) liver CES (SsCES) were used because of their ready availability, relatively low cost, and high sequence homology of EcBChE and SsCES to the corresponding human enzymes.
(§5) Enzymes, substrates, and reference compounds were sourced from Sigma-Aldrich (St. Louis, MO, USA). Enzyme activity was measured spectrophotometrically according to [91] using ATCh iodide, BTCh iodide, and 4-NPA as substrates for HsAChE, EcBChE, and SsCES, respectively. Experimental conditions included a K/Na-phosphate buffer (100 mM), at 25 °C, with pH 7.5 for AChE and BChE assays, and pH 8.0 for CES assays. Measurements were conducted on a BioRad Benchmark Plus microplate spectrophotometer (Hercules, CA, USA). Test compounds were dissolved in DMSO with a final solvent concentration of 2% (v/v) in the incubation mixture.

[4] = molecular target: T2, equine (Equus caballus) serum BChE (EcBChE) (Equus caballus, UniProt P81908); experiment: Inhibition of EcBChE (spectrophotometric, BTCh iodide substrate); format: biochemical; conditions: mean ± SEM, n = 3; for IC50: K/Na-phosphate buffer pH 7.5, 25 °C; for Inhibition of EcBChE, % inhibition at 20 μM: compound 20 μM, n.a. = not active
T2 construct: equine (Equus caballus) serum BChE (EcBChE); purchased Sigma-Aldrich; host or cells: horse serum
Method: as §4, §5

[5] = tested on: porcine (Sus scrofa) liver CES (SsCES); experiment: Inhibition of SsCES (spectrophotometric, 4-NPA substrate); format: biochemical; conditions: compound 20 μM; n.a. = not active; mean ± SEM, n = 3
Text: as §4
Although the dominant carboxylesterase in porcine liver is CES1 [64], the preparation sourced from Sigma-Aldrich is not a purified or recombinant CES1. Therefore, we have designated the preparation used in our experimental studies as SsCES. However, in computational molecular docking studies, it is necessary to choose a single defined protein as the docking target. Thus, the logical choice for our computational studies of CES was the most abundant and best characterized isoform found in porcine liver, which is SsCES1.
as §5

[6] = molecular target: T3, peripheral anionic site (PAS) of Electrophorus electricus AChE (EeAChE) (Electrophorus electricus, UniProt O42275); experiment: Propidium displacement from the EeAChE PAS (fluorescence); format: binding; conditions: compound concentration 20 µM; EeAChE 7 μM, propidium iodide 8 μM, Tris-HCl pH 8.0; n.a. = not active
T3 construct: purchased Sigma-Aldrich type VI-S
Method: A fluorescence-based assay assessed the ability of test compounds to competitively displace propidium iodide from AChE’s PAS [65, 93]. […] EeAChE (7 μM) was incubated with 20 μM test compounds in Tris-HCl buffer (pH 8.0) for 15 min, followed by addition of propidium iodide (8 μM) as described in detail in [95]. Fluorescence readings (530 nm excitation, 600 nm emission) were obtained using a FLUOStar Optima microplate reader (LabTech, Ortenberg, Germany). Displacement (%) was calculated.

[7] = molecular target: T4, human β-amyloid (1–42) (HsAβ42) (Homo sapiens, UniProt P05067); experiment: Inhibition of HsAβ42 self-aggregation (thioflavin T fluorescence); format: biochemical; conditions: HsAβ42 50 µM, compound 100 µM, 24 h, 37 °C; n.a. = not active
T4 construct: purchased AnaSpec Inc
Method: The potential of compounds from all three groups (1a-e, 5a-e, 7a-d) to inhibit HsAβ42 self-aggregation was evaluated using a Thioflavin T (ThT) fluorescence assay.
Inhibition of HsAβ42 self-aggregation by test compounds was studied using the thioflavin T (ThT) fluorescence method with minor modifications as described in detail in [79]. Lyophilized HFIP-pretreated HsAβ42 (AnaSpec Inc., Fremont, CA, USA, 0.5 mg) was dissolved in DMSO to obtain a stable 500 μM solution. The samples of 50 μM HsAβ42 in 215 mM Na-phosphate buffer pH 8.0 were incubated for 24 h at 37 °C in the absence or presence of 100 μM test compounds. Myricetin in the same concentration was used as a reference. After incubation, 5 μM ThT in 50 mM glycine-NaOH buffer pH 8.5 was added, and the fluorescence was measured at 440 nm (exc.) and 485 nm (emis.) with a FLUOStar Optima microplate reader. Blanks consisted of 215 mM Na-phosphate buffer, pH 8.0, 20% (v/v) DMSO or test compounds, respectively. The inhibition (%) of HsAβ42 self-aggregation by the test compounds was calculated.

[8] = ABTS radical cation scavenging activity assay; conditions: for IC50: ABTS^•+ 100 μM; for IC50 / ABTS^•+-Scavenging Activity, TEAC: ethanol, 1 h; for ABTS^•+-Scavenging Activity, TEAC: Trolox equivalent antioxidant capacity, mean ± SEM, n = 3;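 as to Exp. ABTS, TEAC: same experimental ABTS TEAC values reprinted in Table 4 beside calculated BDE and IP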
[9] = Ferric reducing antioxidant power (FRAP) assay; conditions: for Ferric Reducing Antioxidant Power, TE: Trolox equivalents, acetate buffer pH 3.6, 1 h, 37 °C;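 as to Exp. FRAP, TE: same experimental FRAP TE values reprinted in Table 4 beside calculated BDE and IP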

T4 sequence (P05067 672-713 limits assumed): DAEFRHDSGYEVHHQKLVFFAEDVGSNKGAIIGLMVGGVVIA
T1 sequence (P22303 32-617 isoform P22303-2 limits assumed): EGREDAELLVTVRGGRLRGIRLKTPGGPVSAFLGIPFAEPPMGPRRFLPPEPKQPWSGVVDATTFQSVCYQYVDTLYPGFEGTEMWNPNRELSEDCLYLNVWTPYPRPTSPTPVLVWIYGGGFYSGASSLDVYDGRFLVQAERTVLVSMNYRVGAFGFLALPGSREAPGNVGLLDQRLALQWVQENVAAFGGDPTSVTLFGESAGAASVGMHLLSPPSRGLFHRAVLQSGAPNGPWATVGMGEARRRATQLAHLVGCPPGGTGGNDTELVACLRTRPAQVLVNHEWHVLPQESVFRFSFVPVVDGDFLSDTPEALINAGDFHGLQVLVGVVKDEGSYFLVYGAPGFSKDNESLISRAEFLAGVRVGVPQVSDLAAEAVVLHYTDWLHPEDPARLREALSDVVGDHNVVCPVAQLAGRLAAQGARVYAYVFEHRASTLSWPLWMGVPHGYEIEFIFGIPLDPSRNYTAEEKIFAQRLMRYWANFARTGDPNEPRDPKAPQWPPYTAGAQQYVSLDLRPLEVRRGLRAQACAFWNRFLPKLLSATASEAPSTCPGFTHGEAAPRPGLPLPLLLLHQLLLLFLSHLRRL
T2 sequence (P81908 whole entry): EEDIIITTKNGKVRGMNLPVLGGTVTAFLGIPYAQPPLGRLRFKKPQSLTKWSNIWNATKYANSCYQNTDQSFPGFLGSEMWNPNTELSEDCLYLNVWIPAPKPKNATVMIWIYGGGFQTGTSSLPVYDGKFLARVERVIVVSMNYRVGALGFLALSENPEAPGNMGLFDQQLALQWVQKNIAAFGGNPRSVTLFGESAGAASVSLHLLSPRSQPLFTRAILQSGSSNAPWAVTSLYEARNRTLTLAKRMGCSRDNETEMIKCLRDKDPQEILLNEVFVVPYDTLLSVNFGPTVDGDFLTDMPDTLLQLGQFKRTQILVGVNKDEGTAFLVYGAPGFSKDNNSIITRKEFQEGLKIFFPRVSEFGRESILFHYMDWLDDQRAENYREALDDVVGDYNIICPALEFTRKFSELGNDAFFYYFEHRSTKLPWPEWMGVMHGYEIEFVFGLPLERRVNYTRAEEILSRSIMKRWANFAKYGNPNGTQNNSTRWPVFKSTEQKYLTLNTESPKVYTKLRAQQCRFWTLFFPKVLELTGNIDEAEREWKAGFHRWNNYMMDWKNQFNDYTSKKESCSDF
T3 sequence (O42275 24-633): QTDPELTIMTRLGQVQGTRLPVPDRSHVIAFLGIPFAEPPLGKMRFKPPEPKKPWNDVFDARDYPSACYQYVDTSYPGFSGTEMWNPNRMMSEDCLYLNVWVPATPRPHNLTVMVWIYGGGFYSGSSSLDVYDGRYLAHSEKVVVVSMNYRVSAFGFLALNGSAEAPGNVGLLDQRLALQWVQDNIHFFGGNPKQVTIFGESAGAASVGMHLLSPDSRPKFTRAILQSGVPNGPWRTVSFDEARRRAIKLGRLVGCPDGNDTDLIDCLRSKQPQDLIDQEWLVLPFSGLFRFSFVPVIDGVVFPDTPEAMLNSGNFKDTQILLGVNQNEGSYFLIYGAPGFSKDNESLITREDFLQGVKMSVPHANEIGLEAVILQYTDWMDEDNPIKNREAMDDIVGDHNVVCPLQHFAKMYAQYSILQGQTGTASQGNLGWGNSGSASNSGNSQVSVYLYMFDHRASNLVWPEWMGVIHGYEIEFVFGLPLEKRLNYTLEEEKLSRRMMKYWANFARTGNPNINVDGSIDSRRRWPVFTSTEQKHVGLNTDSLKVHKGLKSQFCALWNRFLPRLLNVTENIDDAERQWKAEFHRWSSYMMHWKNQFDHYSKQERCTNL

Compound	CC50 [1] [µM]	CC50 [2] [µM]	CC50 (MCF7 cell line) [µM]	IC50 [3] [µM]	IC50 [4] [µM]	Inhibition of SsCES, % inhibition at 20 μM [5] [%]	Propidium Displacement, (%) [6]	HsAβ42 self-Aggregation Inhibition, (%) [7] [%]	IC50 [8] [µM]	ABTS^•+-Scavenging Activity, TEAC [8]	Ferric Reducing Antioxidant Power, TE [9]	Inhibition of HsAChE, % inhibition at 20 μM [3] [%]	Inhibition of EcBChE, % inhibition at 20 μM [4] [%]	Exp. ABTS, TEAC ([8]; Ethanol, Table 4)	Exp. FRAP, TE ([9]; Water, Table 4)
CC(=C(c1ccc(O)cc1)c1ccc(O)cc1)[c-]1cccc1.[Fe+2].c1cc[cH-]c1 [compound 10, 1,1-bis(4-hydroxyphenyl)-2-ferrocenylprop-1-ene, reference compound]	104 ± 12.3	43.4 ± 6.7	18.1 ± 2.1												
C=C(C)[c-]1cccc1.[Fe+2].c1ccc2nc(-[c-]3cccc3)ccc2c1 [5b]	564 ± 31.8	281 ± 30.1		4.01 ± 0.28	9.91 ± 0.69	35.4 ± 2.8	11.5 ± 0.8%	82.9 ± 6.6	5.6 ± 0.3	4.3 ± 0.2	3.13 ± 0.17				
CCC(=C(c1ccc(O)cc1)c1ccc(O)cc1)[c-]1cccc1.[Fe+2].c1cc[cH-]c1 [Ferrocifenol]			0.9												
CC(=C(c1ccc(O)cc1)c1ccc(O)cc1)[c-]1cccc1.[Fe+2].c1ccc2nc(-[c-]3cccc3)ccc2c1 [compound 11, 1-(quinolin-2-yl)-1’-{1-[bis(4-hydroxyphenyl)methylene]ethyl}ferrocene, reference compound]	139 ± 15.7	57.8 ± 8.2	50.9 ± 3.65												
[Fe+2].c1cc[cH-]c1.c1cc[cH-]c1 [Fc, ferrocene]						4.2 ± 0.7	zero	3.5 ± 0.4	32.9 ± 1.9	0.57 ± 0.03	0.79 ± 0.02	9.6 ± 1.4	6.7 ± 1.0	0.57 ± 0.03	0.79 ± 0.02
C=C(C)[c-]1cccc1.[Fe+2].c1ccc(-c2cccc(-[c-]3cccc3)n2)nc1 [5d]	414 ± 18.6	189 ± 19.3		5.12 ± 0.41	4.86 ± 0.39		8.2 ± 0.6%	83.8 ± 4.2	20.8 ± 0.1	0.94 ± 0.05	1.47 ± 0.06				
[Fe+2].c1cc[cH-]c1.c1ccc(-c2cccc(-[c-]3cccc3)n2)nc1 [1d]	632 ± 22.8	152 ± 21.2		7.89 ± 0.63	13.8 ± 1.2	20.9 ± 1.6	11.1 ± 0.9%	63.7 ± 5.1	20.6 ± 1.5	1.00 ± 0.04	1.77 ± 0.04				
C=C[c-]1cccc1.[Fe+2].c1ccc(-c2cccc(-[c-]3cccc3)n2)nc1 [7d, 1-(2,2′-Bipyridin-6-yl)-1′-Vinylferrocene]	299 ± 21.9	158 ± 19.8		6.34 ± 0.51	7.94 ± 0.55	5.8 ± 1.3	9.7 ± 0.6%	81.5 ± 4.9	15.6 ± 0.7	1.36 ± 0.06	1.93 ± 0.06				
[Fe+2].c1cc[cH-]c1.c1ccc2nc(-[c-]3cccc3)ccc2c1 [1b]	393 ± 13.2	243 ± 27.4		68.1 ± 3.4	2.7 ± 0.19	29.8 ± 2.0	10.2 ± 0.8%	79.5 ± 6.3	6.6 ± 0.3	4.2 ± 0.2	2.21 ± 0.01				
C=C[c-]1cccc1.[Fe+2].c1ccc2c(-[c-]3cccc3)c3ccccc3nc2c1 [7c, 1-(Acridin-9-yl)-1′-Vinylferrocene]						14.1 ± 1.5	10.4 ± 0.8%	86.9 ± 6.1	6.9 ± 0.3	2.9 ± 0.1	1.36 ± 0.01	22.8 ± 1.8	7.6 ± 1.1		
